The target in one assay is T1, Neprilysin (Rattus norvegicus, UniProt P07861).
T1 sequence (P07861 whole entry): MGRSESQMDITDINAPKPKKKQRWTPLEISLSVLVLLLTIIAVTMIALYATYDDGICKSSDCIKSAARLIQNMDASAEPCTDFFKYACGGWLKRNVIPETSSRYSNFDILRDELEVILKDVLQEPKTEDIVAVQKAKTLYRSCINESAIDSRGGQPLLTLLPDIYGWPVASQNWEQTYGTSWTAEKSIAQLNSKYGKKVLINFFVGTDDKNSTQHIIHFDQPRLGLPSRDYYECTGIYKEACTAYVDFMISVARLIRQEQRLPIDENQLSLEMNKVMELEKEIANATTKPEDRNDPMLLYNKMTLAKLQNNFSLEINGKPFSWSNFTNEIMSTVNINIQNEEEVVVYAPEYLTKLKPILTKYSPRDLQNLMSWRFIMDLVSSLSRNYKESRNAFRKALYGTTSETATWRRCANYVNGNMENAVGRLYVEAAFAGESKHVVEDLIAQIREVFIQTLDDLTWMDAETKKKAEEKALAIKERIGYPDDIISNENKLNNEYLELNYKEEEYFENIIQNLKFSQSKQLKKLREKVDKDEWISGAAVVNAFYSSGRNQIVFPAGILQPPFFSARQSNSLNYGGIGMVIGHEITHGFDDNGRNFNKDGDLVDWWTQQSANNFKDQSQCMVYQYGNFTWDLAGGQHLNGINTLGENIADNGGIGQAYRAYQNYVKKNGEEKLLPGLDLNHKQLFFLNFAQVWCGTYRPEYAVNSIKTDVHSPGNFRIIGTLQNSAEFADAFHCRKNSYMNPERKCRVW
The experiment in a line: Compound was measured for the inhibition of neutral endopeptidase 24.11(NEP).

In assay [1] the target is T2, Angiotensin-converting enzyme (Rattus norvegicus, UniProt P47820).
T2 sequence (P47820 whole entry): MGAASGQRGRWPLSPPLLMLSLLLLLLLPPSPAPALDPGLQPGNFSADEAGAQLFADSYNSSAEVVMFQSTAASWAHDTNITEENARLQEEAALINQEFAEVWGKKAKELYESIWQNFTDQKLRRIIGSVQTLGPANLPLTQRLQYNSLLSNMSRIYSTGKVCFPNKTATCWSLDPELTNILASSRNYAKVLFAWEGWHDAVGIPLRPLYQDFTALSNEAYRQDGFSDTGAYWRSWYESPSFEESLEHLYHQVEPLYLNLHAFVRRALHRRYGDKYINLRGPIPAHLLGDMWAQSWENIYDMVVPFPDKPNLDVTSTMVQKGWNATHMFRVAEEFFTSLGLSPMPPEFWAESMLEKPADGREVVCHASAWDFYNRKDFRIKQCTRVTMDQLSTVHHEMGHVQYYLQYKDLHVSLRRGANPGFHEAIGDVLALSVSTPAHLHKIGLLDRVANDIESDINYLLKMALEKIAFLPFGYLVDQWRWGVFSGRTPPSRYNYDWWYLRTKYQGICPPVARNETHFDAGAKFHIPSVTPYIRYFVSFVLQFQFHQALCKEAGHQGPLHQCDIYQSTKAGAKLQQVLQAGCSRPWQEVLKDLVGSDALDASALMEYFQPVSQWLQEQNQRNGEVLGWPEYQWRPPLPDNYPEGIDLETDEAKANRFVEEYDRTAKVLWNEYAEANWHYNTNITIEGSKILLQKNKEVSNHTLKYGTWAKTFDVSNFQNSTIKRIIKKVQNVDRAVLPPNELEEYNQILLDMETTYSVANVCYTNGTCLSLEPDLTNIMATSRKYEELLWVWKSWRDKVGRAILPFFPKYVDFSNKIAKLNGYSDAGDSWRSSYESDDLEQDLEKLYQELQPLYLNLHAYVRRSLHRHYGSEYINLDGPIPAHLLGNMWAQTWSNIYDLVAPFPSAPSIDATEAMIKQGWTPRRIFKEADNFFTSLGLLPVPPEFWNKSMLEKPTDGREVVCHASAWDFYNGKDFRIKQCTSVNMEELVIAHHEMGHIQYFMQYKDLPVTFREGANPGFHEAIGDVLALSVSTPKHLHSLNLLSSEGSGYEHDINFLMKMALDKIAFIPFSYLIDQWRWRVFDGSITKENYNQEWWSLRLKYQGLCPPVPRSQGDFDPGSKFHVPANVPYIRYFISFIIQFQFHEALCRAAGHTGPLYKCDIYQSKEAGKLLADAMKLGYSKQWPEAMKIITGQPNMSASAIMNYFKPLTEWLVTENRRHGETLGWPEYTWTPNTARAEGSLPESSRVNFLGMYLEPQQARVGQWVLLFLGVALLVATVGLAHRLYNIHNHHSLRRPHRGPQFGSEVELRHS
The experiment in a line: Compound was measured for the inhibition of Angiotensin I converting enzyme.

Molecules are shown by their SMILES. pIC50: −log10 of the molar value.

For `O=C(N[C@@H](Cc1ccccc1)P(=O)(O)CC1(C(=O)N[C@@H](Cc2c[nH]c3ccccc23)C(=O)O)CCCC1)c1ccc([N+](=O)[O-])cc1`, the negative logarithm of the IC50 (pIC50) against Neprilysin is 7.26; in assay [1] it was 8.82.
Turning to `CS(=O)(=O)N[C@@H](CCCCN)C(=O)N[C@@H](Cc1ccccc1)P(=O)(O)CC1(C(=O)N[C@@H](Cc2c[nH]c3ccccc23)C(=O)O)CCCC1`, the pIC50 was 7.05 on Neprilysin and 8.60 in assay [1].

For the origin of these results see ChEMBL document CHEMBL1129117 (Bioorg Med Chem Lett, 1996).
